Reference: patent US20180370912A1, “COMPOUNDS AND METHODS FOR TREATING DISEASES MEDIATED BY PROTEIN DISULFIDE ISOMERASE” (Beth Israel Deaconess Medical Center, Inc., priority 2017, published 2018)

Legend:
thioredoxin = molecular target: T1, thioredoxin (Homo sapiens, UniProt P10599); assay: Maleimide-polyethylene glycol-2-biotin (MPB) binding; conditions: 150 μM inhibitor, FIG. 2c, FIG. 8
T1 sequence (P10599 1-105): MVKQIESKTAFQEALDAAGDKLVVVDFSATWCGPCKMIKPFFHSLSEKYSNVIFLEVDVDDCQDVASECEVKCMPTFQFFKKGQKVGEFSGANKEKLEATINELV
Experimental: (§1) Maleimide-Polyethanol glycol-2-Biotin (MPB) binding experiments were performed in a reaction volume of 37.5 μL with 5 μM of thiol isomerase or bovine serum albumin (BSA) in Tris-buffered saline (TBS), in the presence and absence of 1 mM of N-ethylmaleimide (NEM) or bacitracin, and 150 μM of the mentioned other inhibitors. The reaction mixture was incubated at 37° C. for 1 hour. Subsequently, the reaction mixtures were incubated with 25 μM of MPB. The labeling was performed for 20 minutes at 25° C. A total of 12.5 μL of 4× Laemmli Sample Buffer with 5% β-mercaptoethanol was added to each of the samples, followed by heating at 95° C. for 10 minutes. From each sample, 10 μL was loaded on a 12% SDS-PAGE gel, followed by transfer on a nitrocellulose membrane. After blocking the membrane with TBS-T containing 5% BSA for one hour, the membrane was incubated with a 1:2000 dilution of Cy5-tagged Streptavidin for an hour in the dark. Detection of the immunoblots was performed using ImageQuant LAS 4000 and analysis was performed using ImageQuant TL software.

ERp5 [1] = molecular target: T2, ERp5 (Homo sapiens, UniProt Q15084); assay: as above; conditions: 150 μM inhibitor, FIG. 2c, FIG. 8
T2 construct: recombinant His-tagged full-length ERp5, ERp72 and PDI domain fragments; His; made in house; host or cells: Escherichia coli Origami B (DE3), pET-15b
T2 sequence (Q15084 20-440): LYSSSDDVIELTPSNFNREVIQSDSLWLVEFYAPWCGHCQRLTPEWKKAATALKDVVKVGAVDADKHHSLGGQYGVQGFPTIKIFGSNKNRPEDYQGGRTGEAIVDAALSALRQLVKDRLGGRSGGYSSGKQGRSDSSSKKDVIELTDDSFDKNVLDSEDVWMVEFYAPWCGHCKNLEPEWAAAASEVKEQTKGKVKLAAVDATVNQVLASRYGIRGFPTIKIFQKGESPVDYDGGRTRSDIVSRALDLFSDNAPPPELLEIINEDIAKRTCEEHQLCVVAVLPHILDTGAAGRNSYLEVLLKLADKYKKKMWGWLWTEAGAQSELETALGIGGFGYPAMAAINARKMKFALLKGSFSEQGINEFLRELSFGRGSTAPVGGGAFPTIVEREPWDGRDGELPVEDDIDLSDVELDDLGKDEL
Experimental: as §1

ERp57 [2] = molecular target: T3, ERp57 (Homo sapiens, UniProt P30101); assay: as above; conditions: 150 μM inhibitor, FIG. 2c, FIG. 8
T3 construct: FLAG; made in house; host or cells: Escherichia coli Origami B (DE3), pET-15b
T3 sequence (P30101 25-505): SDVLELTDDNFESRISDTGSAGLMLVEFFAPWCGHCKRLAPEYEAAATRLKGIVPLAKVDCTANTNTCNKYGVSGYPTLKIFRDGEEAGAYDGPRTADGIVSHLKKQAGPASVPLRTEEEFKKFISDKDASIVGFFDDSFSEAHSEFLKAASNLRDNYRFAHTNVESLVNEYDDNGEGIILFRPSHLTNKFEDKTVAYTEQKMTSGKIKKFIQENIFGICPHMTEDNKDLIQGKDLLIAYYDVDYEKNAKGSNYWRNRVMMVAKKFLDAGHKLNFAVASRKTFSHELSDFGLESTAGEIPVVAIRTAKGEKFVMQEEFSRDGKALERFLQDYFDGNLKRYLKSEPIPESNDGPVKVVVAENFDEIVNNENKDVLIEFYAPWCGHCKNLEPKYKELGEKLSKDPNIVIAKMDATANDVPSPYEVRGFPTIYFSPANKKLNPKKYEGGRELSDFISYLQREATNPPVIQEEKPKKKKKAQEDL
Experimental: as §1

ERp72 = molecular target: T4, ERp72 (Homo sapiens, UniProt P13667); assay: Di-eosin-GSSG disulfide reductase assay; format: biochemical
T4 construct: recombinant His-tagged full-length ERp5, ERp72 and PDI domain fragments; His; made in house; host or cells: Escherichia coli Origami B (DE3), pET-15b
T4 sequence (P13667 21-645): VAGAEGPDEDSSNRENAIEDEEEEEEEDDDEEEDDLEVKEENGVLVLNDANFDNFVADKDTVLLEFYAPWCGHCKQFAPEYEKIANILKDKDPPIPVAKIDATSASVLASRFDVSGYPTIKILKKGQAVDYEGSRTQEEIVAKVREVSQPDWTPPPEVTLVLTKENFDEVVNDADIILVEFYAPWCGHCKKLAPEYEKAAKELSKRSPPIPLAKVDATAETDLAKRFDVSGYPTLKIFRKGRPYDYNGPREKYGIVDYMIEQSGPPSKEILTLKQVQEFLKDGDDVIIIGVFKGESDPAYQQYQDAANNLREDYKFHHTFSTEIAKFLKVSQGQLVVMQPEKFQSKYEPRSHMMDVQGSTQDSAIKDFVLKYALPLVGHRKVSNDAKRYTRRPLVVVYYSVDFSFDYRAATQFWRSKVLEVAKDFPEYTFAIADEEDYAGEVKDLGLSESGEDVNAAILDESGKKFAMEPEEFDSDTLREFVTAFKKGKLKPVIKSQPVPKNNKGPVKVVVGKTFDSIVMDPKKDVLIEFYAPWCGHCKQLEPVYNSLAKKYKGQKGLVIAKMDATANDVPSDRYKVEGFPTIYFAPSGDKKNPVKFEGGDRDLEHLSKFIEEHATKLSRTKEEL
Experimental: (§2) The probe di-eosin glutathione disulfide, di-eosin-GSSG, was prepared as previously described in Raturi, A., Vacratsis, P. O., Seslija, D., Lee, L. & Mutus, B., Biochem J 391, 351-357 (2005). Reductase activity of purified thiol isomerases and PDI domains was monitored in a 96-well fluorescence plate format. PDI, AGHA-PDI, ERpS, ERp57, ERp72 and PDI domains were assayed at 50 nM in the presence or absence of the indicated small molecules, peptides or cathepsin G. The assay included 100 mM potassium phosphate (pH 7.4) containing 2 mM EDTA, 5 μM DTT and 150 nM of the di-eosin GSSG probe. The increase in fluorescence was determined for 20 minutes by excitation at 520 nm and emission at 550 nm in a Synergy Biotek 4. The reduction of 150 nM di-eosin-GSSG by 5 μM DTT in the presence or absence of mentioned small molecules, peptides or proteins served as a negative control.

ERp5 [3] = molecular target: T2, ERp5; assay: Di-eosin-GSSG disulfide reductase assay; format: biochemical
Experimental: as §2

ERp57 [4] = molecular target: T3, ERp57; assay: Di-eosin-GSSG disulfide reductase assay; format: biochemical
Experimental: as §2

Row | SMILES | reaction of MPB with the catalytic cysteines of thioredoxin (thioredoxin) | reaction of MPB with the catalytic cysteines of ERp5 (ERp5 [1]) | reaction of MPB with the catalytic cysteines of ERp57 (ERp57 [2]) | cleavage of di-eosin-GSSG by ERp72 (catalytic activity) (ERp72) | cleavage of di-eosin-GSSG by ERp5 (catalytic activity) (ERp5 [3]) | cleavage of di-eosin-GSSG by ERp57 (catalytic activity) (ERp57 [4])
1 | C#CC(=O)N(c1ccc(OC)cc1OC)C(C(=O)NCC(=O)OCC)c1cccs1 (stereo not drawn) [PACMA-31, N-(2,4-Dimethoxyphenyl)-N-(1-oxo-2-propyn-1-yl)-2-(2-thienyl)glycyl-glycine ethyl ester, reference compound] | interfered with the reaction of maleimide-polyethylene glycol-2-biotin (MPB) | interfered with the reaction of maleimide-polyethylene glycol-2-biotin (MPB) | interfered with the reaction of maleimide-polyethylene glycol-2-biotin (MPB) |  |  | 
2 | CCOC(=O)c1c(CNCCN(CC)CC)n(-c2ccccc2)c2cc(Br)c(O)cc12 [bepristat 2a] |  |  |  | did not augment activity | did not augment activity | did not augment activity
